# Source: patent US7709645B2, “Pyrrolo-pyridine kinase modulators” (SGX Pharmaceuticals, Inc., priority 2004, dated 2010)
# Target: T1, PDK1 kinase (Homo sapiens, UniProt O15530)
# T1 construct: 6x Histidine tag (TEV-cleavable) (cleaved yes); made in house; host or cells: Sf9 insect cells
# T1 sequence (O15530 1-556): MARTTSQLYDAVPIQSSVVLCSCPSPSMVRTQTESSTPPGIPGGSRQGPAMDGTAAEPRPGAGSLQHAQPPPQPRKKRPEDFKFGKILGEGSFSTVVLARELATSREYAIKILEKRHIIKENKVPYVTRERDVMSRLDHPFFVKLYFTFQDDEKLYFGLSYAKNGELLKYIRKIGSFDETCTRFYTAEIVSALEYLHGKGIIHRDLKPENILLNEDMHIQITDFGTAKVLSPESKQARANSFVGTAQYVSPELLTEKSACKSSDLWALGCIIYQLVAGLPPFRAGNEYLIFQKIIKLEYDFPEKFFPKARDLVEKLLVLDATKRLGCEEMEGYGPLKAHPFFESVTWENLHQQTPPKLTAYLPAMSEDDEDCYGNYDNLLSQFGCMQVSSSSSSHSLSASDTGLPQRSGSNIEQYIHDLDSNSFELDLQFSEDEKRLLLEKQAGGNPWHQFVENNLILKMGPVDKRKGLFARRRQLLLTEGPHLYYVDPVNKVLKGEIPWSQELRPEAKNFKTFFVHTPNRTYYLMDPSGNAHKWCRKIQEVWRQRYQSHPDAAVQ
# Assay: PDK1 Bioassay (luminescence-based enzyme assay, Kinase-Glo)
# Format: biochemical
# Conditions: 5 μM ATP
# From the text: In addition to the c-Abl PK/LDH coupled assay (above), homogeneous luminescence-based inhibitor screening assays were developed for c-Abl, MET, AurA, and PDK1 kinases (among others). Each of these assays made use of an ATP depletion assay (Kinase-Glo™, Promega Corporation, Madison, Wis.) to quantitate kinase activity. The Kinase-Glo™ format uses a thermostable luciferase to generate luminescent signal from ATP remaining in solution following the kinase reaction. The luminescent signal is inversely correlated with the amount of kinase activity.
# Materials: PDKtide peptide substrate=KTFCGTPEYLAPEVRREPRJLSEEEQEMFRDFDYIADWC (SEQ ID NO:3) (Upstate Cat#12-401), ATP (Sigma Cat#A-3377, FW=551), HEPES buffer, pH 7.5, 10% Brij 35 (Calbiochem Cat#203728), MgCl2, Staurosporine (Streptomyces sp. Sigma Cat#85660-1MG), white Costar 384-well flat-bottom plate (VWR Cat#29444-088), PDK1 kinase (see below), Kinase-Glo™ (Promega Cat#V6712).
# Stock Solutions: 1 mM PDKtide substrate (1 mg in 200 μl, as supplied by Upstate), stored at −20° C.; 100 mM HEPES buffer, pH 7.5 (5 ml 1M HEPES stock+45 ml miliQH2O); 10 mM ATP (5.51 mg/ml in dH2O) stored at −20° C. (diluted 25 μl into total of 10 ml miliQH2O daily=25 μM ATP working stock); 100 mM MgCl2; 10% Brij 35 stored at 2-8° C.; 200 μM Staurosporine, 2× Kinase-Glo™ reagent (made fresh or stored at −20° C.).
# Standard Assay Setup for 384-well format (20 μl kinase reaction, 40 μl detection reaction): 10 mM MgCl2; 0.01 mM PDKtide; 1 μl test compound (in DMSO); 0.1 μg/ml PDK1 kinase; 5 μM ATP; 10 mM MgCl2; 100 mM HEPES+0.01% Brij buffer. Positive controls contained DMSO with no test compound. Negative controls contained 10 μM staurosporine. The kinase reactions were initiated at time t=0 by the addition of ATP. Kinase reactions were incubated at 21° C. for 40 min, then 20 μl of Kinase-Glo™ reagent were added to each well to quench the kinase reaction and initiate the luminescence reaction. After a 20 min incubation at 21° C., the luminescence was detected in a plate-reading luminometer.
# Cell pellets produced from 6 L of Sf9 insect cells expressing human PDK1 were resuspended in a buffer containing 50 mM Tris-HCl pH 7.7 and 250 mM NaCl in a volume of approximately 40 mL per 1 L of original culture. One tablet of Roche Complete, EDTA-free protease inhibitor cocktail (Cat# 1873580) and 85 units Benzonase (Novagen Cat#70746-3)) were added per 1 L of original culture. The suspension was stirred for 1 hour at 4° C. Debris was removed by centrifugation for 30 minutes at 39,800×g at 4° C. The supernatant was decanted into a 500 mL beaker and 10 ml of a 50% slurry of Qiagen Ni-NTA Agarose (Cat#30250) that had been pre-equilibrated in 50 mM Tris-HCl pH 7.8, 500 mM NaCl, 10% Glycerol, 10 mM Imidazole, and 10 mM Methionine, were added and stirred for 30 minutes at 4° C. The sample was then poured into a drip column at 4° C. and washed with 10 column volumes of 50 mM Tris-HCl pH 7.8, 500 mM NaCl, 10% Glycerol, 10 mM Imidazole, and 10 mM Methionine. The protein was eluted using a step gradient with two column volumes each of the same buffer containing 50 mM, and 500 mM Imidazole, sequentially. The 6×Histidine tag was cleaved overnight using 40 units of TEV protease (Invitrogen Cat#10127017) per 1 mg of protein while dialyzing in 50 mM Tris-HCl pH 7.8, 500 mM NaCl, 10% Glycerol, 10 mM Imidazole, and 10 mM Methionine at 4° C. The 6× Histidine tag was removed by passing the sample over a Pharmacia 5 ml IMAC column (Cat# 17-0409-01) charged with Nickel and equilibrated in 50 mM Tris-HCl pH 7.8, 500 mM NaCl, 10% Glycerol, 10 mM Imidazole, and 10 mM Methionine. The cleaved protein eluted in the flow-through, whereas the uncleaved protein and the His-tag remained bound to the Ni-column. The cleaved protein fractions were combined and concentrated using spin concentrators. […]
row,Compound,IC50 [nM]
1,COc1ccccc1-c1c[nH]c2ncc(-c3cc[nH]c(=O)c3)cc12 [AE9],1000 to 5000
2,N#Cc1cc(-c2cnc3[nH]cc(-c4ccc5[nH]ccc5c4)c3c2)ccc1O [AE20],1000 to 5000
3,COc1ccccc1-c1c[nH]c2ncc(-c3ccc(S(N)(=O)=O)cc3)cc12 [AE21],1000 to 5000
4,Nc1nc(-c2c[nH]c3ncc(-c4ccc5[nH]ccc5c4)cc23)cs1 [AE55],< 1000
5,Oc1cccc(-c2cnc3[nH]cc(-c4ccn[nH]4)c3c2)c1 [AE49],1000 to 5000
6,COc1cc(-c2cnc3[nH]cc(-c4ccc(O)cc4)c3c2)ccc1O [AE58],< 1000
7,COc1ccccc1-c1c[nH]c2ncc(-c3ccc4[nH]cc(CC(=O)O)c4c3)cc12 [AE10],1000 to 5000
8,COc1cc(-c2cnc3[nH]cc(-c4ccccc4OC)c3c2)ccc1O [AE64],1000 to 5000
9,CNC(=O)c1cc(-c2cnc3[nH]cc(-c4ccccc4OC)c3c2)cs1 [AE2],1000 to 5000
10,COc1ccccc1-c1c[nH]c2ncc(-c3ccc(S(N)(=O)=O)s3)cc12 [AE11],1000 to 5000
11,Oc1cccc(-c2cnc3[nH]cc(-c4ccc(O)c(F)c4)c3c2)c1 [AE48],1000 to 5000
12,COc1ccccc1-c1c[nH]c2ncc(-c3csc(C(=O)N(C)C)c3)cc12 [AE3],1000 to 5000
